Measurements taken from patent publication US10435375B2, “CXCR4 chemokine receptor modulators” (NORTHWESTERN UNIVERSITY, priority 2015, dated 2019).
Entries after “also recorded” stand apart in the source; their conditions may differ. Blank lines part the entries; values can stand above or below the compound they belong to.

Columns and labels:
CXCR4 [1] = molecular target: T1, CXCR4 (Homo sapiens, UniProt P61073); assay: (Ca)i mobilization assay using CXCR4 expressing U87 cells; assay type: cell-based; parameters: host or cells: U87 glioblastoma cells
CXCR4 [2] = molecular target: T1, CXCR4; assay: Calcium imaging ((Ca)i mobilization) assay, fura-2, C8161 melanoma cells; assay type: cell-based; parameters: human melanoma cell line C8161 was initially used, which expresses numerous human CXCR4 receptors; endogenous in cells; host or cells: C8161 human melanoma cells; conditions: for effect on SDF-1-induced (Ca)i response: test compounds 10 μM; for Pharmacology: Table 2, agonist or antagonist; for own (Ca)i response (agonist effect): compounds 10 μM where stated, SDF-1 100 nM; for compound's (Ca)i response in presence of CXCR4 antagonist AMD3100: AMD3100 1 μM where stated; for Ca^2+ Assay: Table 1, calcium imaging behavior
Description: The initial assay for examining the activity of different molecules was based on the fact that activation of CXCR4 receptors produces an increase in the intracellular free Ca^2+ concentration (Ca)i. This signal can easily be observed using a fluorescent Ca^2+ sensing dye such as fura-2. The quantitative nature of this assay makes it ideal for screening purposes. Moreover, the assay can also distinguish potential antagonists from potential agonists. The aggressive human melanoma cell line C8161 was initially used, which expresses numerous human CXCR4 receptors and produces strong (Ca)I signals when stimulated with SDF-1 (FIG. 3). In the assay, cells were usually stimulated twice with SDF-1. […] To test a drug, the compound in question was usually added prior to the second stimulation with SDF-1. At this point it was possible to observe whether the compound itself acted as an agonist by giving its own response or if it reduced the magnitude of the second response to SDF-1. […] Each of the four antagonists were then assayed at multiple concentrations to obtain a dose-response relationship and an estimated IC50. Antagonists NUCC-388, 397, 392, and 51420 had IC50 values of 0.3 μM, 3 μM, 1 μM, and 1 μM respectively.

CXCR4 [3] = molecular target: T1, CXCR4; assay: ERK activation (pERK, Western blot) in C8161 cells; assay type: cell-based; parameters: human melanoma cell line C8161 was initially used, which expresses numerous human CXCR4 receptors; endogenous in cells; host or cells: C8161 human melanoma cells; conditions: SDF-1 100 nM, NUCC-390 10 μM, 30 min
Description: To further explore the agonist potential of compound NUCC-390, changes in signaling downstream of CXCR4 were examined. For these experiments, lysates were collected from treated C8161 cells and analyzed them using Western blot. […] That drug NUCC-390 has the capability of stimulating signaling activity downstream of CXCR4 receptors further supports the observation that NUCC-390 acts as a CXCR4 agonist.

CXCR4-YFP = molecular target: T2, CXCR4-YFP (Homo sapiens, UniProt P61073); assay: Internalization of YFP-tagged CXCR4 receptors in HEK293 cells; assay type: cell-based; conditions: for CXCR4-YFP receptor internalization: 2 hours, SDF-1 100 nM, NUCC-390 10 μM; for inhibition of NUCC-390-induced CXCR4-YFP internalization: AMD3100 1 μM
T2 construct: expressed in transfected cells; host or cells: HEK293 cells

C8161 cells = assay: Chemotaxis of C8161 cells, Boyden chamber assay; assay type: cell-based, human; conditions: SDF-1 100 nM, NUCC-390 10 μM, p<0.01, n=6
Description: Chemokines are well known for their ability to stimulate chemotaxis of leukocytes and stem cells. In order to further establish the biological activity of the CXCR4 agonists, the ability of SDF-1 and NUCC-390 to produce chemotaxis of C8161 cells was compared using a Boyden chamber assay.

[4] = tested on: cells from AML patient #2; assay: Cell viability assay measuring colony forming units, cells from AML patient #2, with Ara-C; assay type: cell-based; conditions: AML patient #2 cells; combination with Ara-C
Protocol: FIG. 22. Cell viability assay measuring colony forming units of from AML patient #2. Cells were treated with cytotoxic agent Ara-C, the indicated CXCR4 agent, or a combination.

KT1 cells = assay: Cell viability assay measuring colony forming units of KT1 cells, with imatinib; assay type: cell-based; conditions: combination with imatinib
Protocol: FIG. 21. Cell viability assay measuring colony forming units of KT1 cells. Cells were treated with kinase inhibitor imatinib, the indicated CXCR4 agent, or a combination, at the indicated concentrations.

U937 cells = assay: Cell viability assay, U937 cells, with Ara-C; assay type: cell-based
Protocol: FIG. 20. Cell viability assay with agonist NUCC-390 and known chemotherapeutics. The first bar is viability no NUCC-390 or Ara-C. Otherwise, the concentration of NUCC-390 was maintained at 50 μM in all experiments. U937 cells were treated with NUCC-390 and the indicated concentration of Ara-C.

[5] = C8161 cells, listed as NUCC-390

T1 sequence (P61073 whole entry): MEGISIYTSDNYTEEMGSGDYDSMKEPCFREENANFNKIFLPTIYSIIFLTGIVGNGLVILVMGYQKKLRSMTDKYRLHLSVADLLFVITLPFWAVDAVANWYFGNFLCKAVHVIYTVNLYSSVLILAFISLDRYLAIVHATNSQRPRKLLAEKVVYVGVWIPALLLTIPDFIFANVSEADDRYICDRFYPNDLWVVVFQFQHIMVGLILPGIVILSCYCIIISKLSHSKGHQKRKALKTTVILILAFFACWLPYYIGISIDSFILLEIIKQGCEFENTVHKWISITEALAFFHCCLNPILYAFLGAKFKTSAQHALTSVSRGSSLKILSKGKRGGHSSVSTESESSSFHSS
T2 sequence (P61073 whole entry): as above

- own (Ca)i response (agonist effect) (CXCR4 [1]): robust calcium response
- effect on SDF-1-induced (Ca)i response (CXCR4 [2]; C8161 cells): blocks the effect of SDF-1
- Pharmacology (CXCR4 [2]): Antagonist
Compound: Cn1nc(C(=O)N2CCCCC2)c2c1CCC(NCCCN1CCOCC1)C2 (stereo not shown) [NUCC-0176288]

- own (Ca)i response (agonist effect) (CXCR4 [2]; C8161 cells): two strong (Ca)i responses
Compound: SDF-1: cognate agonist for CXCR4, the 93 amino acid protein CXCL12 (SDF-1)
- level of phosphorylated ERK (pERK) (CXCR4 [3]): increased levels of phosphorylated ERK; also recorded: Increase in pERK
- CXCR4-YFP receptor internalization (CXCR4-YFP): pronounced internalization of CXCR4-YFP; also recorded: causes most of the CXCR4 receptor to become internalized
- chemotaxis (C8161 cells): robust chemotactic activity

- own (Ca)i response (agonist effect) (CXCR4 [1]): robust calcium response
- effect on SDF-1-induced (Ca)i response (CXCR4 [2]; C8161 cells): blocks the effect of SDF-1
- Pharmacology (CXCR4 [2]): Antagonist
Compound: CCCn1nc(C(=O)N(C)Cc2ccccc2)c2c1CCC(NCCc1ccncc1)C2 (stereo not shown) [NUCC-0176299]

The next lines start with the compound.

Compound: CCCn1nc(C(=O)N(C)C)c2c1CCC(NCc1ccc(F)cc1)C2 (stereo not shown) [NUCC-0054121, 5-((4-Fluorobenzyl)amino)—N,N-dimethyl-1-propyl-4,5,6,7-tetrahydro-1H-indazole-3-carboxamide]
- effect on cell killing by Ara-C (colony forming units) [4]: enhanced the cell killing ability of Ara-C
- effect on cell killing by imatinib (colony forming units) (KT1 cells): enhanced the cell killing ability of imatinib
- compound's (Ca)i response in presence of CXCR4 antagonist AMD3100 (CXCR4 [2]; C8161 cells): inhibited by AMD3100
- own (Ca)i response (agonist effect) (CXCR4 [2]; C8161 cells): robust agonist activity
- Ca^2+ Assay (CXCR4 [2]): Agonist
- Pharmacology (CXCR4 [2]): Agonist

Compound: c1cc(CN2CCCNCCNCCCNCC2)ccc1CN1CCCNCCNCCCNCC1 [AMD3100, reference compound]
- inhibition of NUCC-390-induced CXCR4-YFP internalization (CXCR4-YFP): blocks internalization
- inhibition of NUCC-390-induced CXCR4-YFP internalization (CXCR4-YFP; listed as AMD-3100): completely inhibited
- effect on SDF-1-induced (Ca)i response (CXCR4 [2]; C8161 cells): completely blocked stimulation with SDF-1; also recorded: blocked the effects of SDF-1

Compound: CCCn1nc(C(=O)N2CCCCC2)c2c1CCC(NCCc1ccncc1)C2 (stereo not shown) [NUCC-0000390, Piperidin-1-yl(1-propyl-5-((2-(pyridin-4-yl)ethyl)amino)-4,5,6,7-tetrahydro-1H-indazol-3-yl)methanone]
- level of phosphorylated ERK (pERK) (CXCR4 [3]): increased levels of pERK; also recorded: Increase in pERK
- CXCR4-YFP receptor internalization (CXCR4-YFP): causes most of the CXCR4 receptor to become internalized
- effect on cell viability, compound alone (U937 cells; NUCC-390 50 μM): only a modest effect by itself
- effect on cytotoxicity of Ara-C in combination (U937 cells; NUCC-390 50 μM plus Ara-C): significantly increased the cytotoxicity of Ara-C
- chemotaxis (C8161 cells): matched by the effects of NUCC-390
- compound's (Ca)i response in presence of CXCR4 antagonist AMD3100 (CXCR4 [2]; [5]): completely inhibited; also recorded: completely blocked by AMD3100
- own (Ca)i response (agonist effect) (CXCR4 [2]; [5]): produced their own response; also recorded: effects were similar to those produced by SDF-1; also recorded: strong (Ca)i response; also recorded: produced agonist effects
- Ca^2+ Assay (CXCR4 [2]): Agonist
- Pharmacology (CXCR4 [2]): Agonist

Compound: CN(C)CCNC1CCc2c(c(C(=O)N(C)Cc3ccccc3)nn2C)C1 (stereo not shown) [NUCC-0000388]
- inhibition of NUCC-390-induced CXCR4-YFP internalization (CXCR4-YFP): completely inhibited
- inhibition of NUCC-390-induced (Ca)i response (CXCR4 [2]; C8161 cells): inhibited
- IC50 (CXCR4 [2]; C8161 cells, multiple concentrations, dose-response, read-out: estimated IC50 (antagonism of SDF-1 (Ca)i response)): 0.3 µM
- effect on SDF-1-induced (Ca)i response (CXCR4 [2]; C8161 cells, listed as NUCC-388): antagonized the effects of SDF-1; also recorded: blocks the effect of SDF-1; also recorded: completely inhibited the second addition of SDF-1
- Ca^2+ Assay (CXCR4 [2]): Antagonist
- Pharmacology (CXCR4 [2]): Antagonist
